How the values were obtained:
yeast Erf2p/Erf4p = target: T1, yeast Erf2p/Erf4p (Saccharomyces cerevisiae, UniProt Q06551); assay: Ras PAT assay: [3H]palmitate incorporation into GST-Ras(HV)CCaaX by partially purified Erf2p/Erf4p, with competitor or inhibitor; assay type: biochemical, S. cerevisiae; conditions: 0.5 μM [3H]palmitoyl-CoA; for effectiveness as competitor of the radioactive Ras PAT reaction (in words): unlabeled acyl-CoA at concentrations similar to 8 μM, FIG. 17
T1 construct: made in house; host or cells: S. cerevisiae RJY543 (galactose-induced)
T1 sequence (Q06551 1-359): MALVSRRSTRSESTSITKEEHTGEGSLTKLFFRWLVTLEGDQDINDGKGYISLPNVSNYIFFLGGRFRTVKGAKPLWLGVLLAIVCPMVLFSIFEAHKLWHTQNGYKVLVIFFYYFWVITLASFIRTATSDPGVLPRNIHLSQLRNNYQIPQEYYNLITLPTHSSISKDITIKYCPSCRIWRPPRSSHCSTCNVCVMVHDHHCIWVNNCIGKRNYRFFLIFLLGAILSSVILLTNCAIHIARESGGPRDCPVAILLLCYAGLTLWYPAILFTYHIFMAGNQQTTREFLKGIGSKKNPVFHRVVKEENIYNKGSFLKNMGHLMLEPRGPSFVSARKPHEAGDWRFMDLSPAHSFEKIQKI
T1 sequence (P41912 1-237 partner): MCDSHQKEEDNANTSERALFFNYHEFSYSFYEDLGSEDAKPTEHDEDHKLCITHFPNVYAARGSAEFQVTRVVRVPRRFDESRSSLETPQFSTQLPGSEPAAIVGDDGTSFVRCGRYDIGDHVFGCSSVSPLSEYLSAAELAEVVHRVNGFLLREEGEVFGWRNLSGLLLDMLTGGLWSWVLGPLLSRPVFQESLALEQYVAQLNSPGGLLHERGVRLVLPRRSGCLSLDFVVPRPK
Procedure: FIG. 17—Concentration dependent inhibition of yeast PAT activity by acyl-CoAs. Partially purified yeast Erf2p/Erf4p was assayed for PAT activity in the presence of 0.5 μM [^3H]palmitoyl-CoA and the indicated concentrations of unlabeled acyl-CoA substrates as indicated: decanoyl-CoA (C10:0), lauroyl-CoA (C12:0), myristoyl-CoA (C14:0), palmitoyl-CoA (C16:0), palmitoleoyl-CoA (C16:1), stearoyl-CoA (C18:0), and oleoyl-CoA (C18:1). Radiolabeled palmitoylated GST-Ras(HV)CCaaX was excised from the gel and quantitated. Results are expressed as a percent of Ras PAT activity in the absence of competitor (100%).
FIG. 18—Inhibition of Erf2p/Erf4p-dependent PAT by 2-bromopalmitate. Partially purified Erf2p/Erf4p was assayed for palmitoyltransferase activity using GST-Ras(HV)CCaaX (1.33 μM) and 0.5 μM [^3H]palmitoyl-CoA as substrate. Radiolabeled palmitoylated GST-Ras(HV)CCaaX was excised from the gel and quantitated. Results are expressed as a percent of Ras PAT activity in the absence of competitor (100%).
Ras PAT Assays—Ras PAT activity was assayed by measuring the incorporation of tritiated palmitate. [^3H]palmitoyl-CoA substrate was synthesized from [^3H]palmitic acid (NEN) and Coenzyme A using acyl-CoA synthetase (Sigma) and purified as described (Taylor et al., 1990). The PAT assay (25 μl of final volume) was performed by adding 1.5 μg of GST-Ras(HV)CCaaX(2 μM) to GST-Erf4p/FLAG-Erf2p GSH beads in 1 mM DTT, 100 mM MES (pH 6.3). The reaction was started by the addition of 1 μl of [^3H]palmitoyl-CoA (0.5 μM), incubated for 15 min at 30° C., and terminated by the addition of 5 μl of a 5× solution of SDS gel loading buffer without DTT. Heat inactivation was performed by boiling (100° C., 15 min) the GSH beads containing GST-Erf4p/FLAG-Erf2p prior to the addition of substrates. The assays were analyzed by SDS-PAGE using Bis-Tris gels, pH 6.4 (Nu-PAGE®), and subjected to fluorography as described (Mitchell et al., 1994). Quantitation of Ras PAT activity was done by excising Ras protein bands from the gel, solubilizing them in Soluene S-350 (Packard), and counting in a scintillation counter.
The lipid substrate specificity of Ras PAT was investigated by adding increasing amounts of unlabeled acyl-CoA competitors to the radioactive Ras PAT reaction. […] Decanoyl (C10:0) was ineffective at similar concentrations. […] Both saturated and unsaturated fatty acyl-CoAs were effective inhibitors. Little difference was observed between C16:0 and C16:1, or C18:0 and C18:1. The lack of complete acyl-CoA substrate specificity of Ras PAT is consistent with the finding that thioester-linked fatty acids on protein are heterogeneous in vivo (Linder, 2001).
Inhibition of autopalmitoylation or substrate palmitoylation can come about by substrates or substrate analogs. […] The lipid substrate specificity of yeast Erf2p/Erf4p for Ras palmitoylation was investigated by adding increasing amounts of unlabeled acyl-CoA competitors to the radioactive Ras PAT reaction. […] Decanoyl (C10:0) was ineffective at similar concentrations. […] Both saturated and unsaturated fatty acyl-CoAs were effective inhibitors. Little difference was observed between C16:0 and C16:1, or C18:0 and C18:1. The lack of complete acyl-CoA substrate specificity of Ras PAT is consistent with the finding that thioester-linked fatty acids on protein are heterogeneous in vivo (Linder, 2001). […]

Erf2p/Erf4p complex = target: T2, Erf2p/Erf4p complex (Saccharomyces cerevisiae, UniProt Q06551); assay: Autopalmitoylation of Erf2p, microtiter plate assay with [3H]palmitoyl CoA; assay type: biochemical, yeast; conditions: 2-bromopalmitate 16, 63 or 250 μM; 30 minutes at 25 °C; no substrate
T2 construct: FLAG (N); made in house
T2 sequence (Q06551 1-359): T1 sequence (Q06551 1-359)
T2 sequence (P41912 1-237 partner): T1 sequence (P41912 1-237 partner)
Procedure: FIG. 19—Inhibition of autopalmitoylation of Erf2p. Partially purified […]/GST-Erf4p (2.7 nM) was bound to the well of a GSH coated microtiter plate. The complex was incubated in reaction buffer (122 mM NaCl, 183 mM Tris HCl pH 7.8, 0.6 mM DTT and 0.035% Triton X-100) (registered trademark of Union Carbide Chemicals and Plastics Co., Inc. for a compound of formula C14H22O(C2H4O)n (CAS No. 9002-93-1); hereinafter referred to as “Triton X-100”))in the presence or absence of 2-bromopalmitate (16 .μ.M, 63 .μ.M or 250 .μ.M). The autopalmitoylation reaction was initiated by addition of 5 .μ.l of 3 .μ.M [^ 3H]palmitoyl CoA and the reaction was incubated for 30 minutes at 25 ° C. The wells were washed (3 × 200 .μ.l 20 mM phosphate pH 6 with 1% Triton X-100) and 3 × 200 .μ.l 25% ipa in water. Finally, wash with 2 × 200 .μ.l 20 mM phosphate pH 6 with 150 mM NaCl. The wells were counted in scintillation fluid.
The inventors tested whether 2-BP inhibits autopalmitoylation of yeast Erf2p.

PAT = conditions: reported by Webb et al., 2000; cited from earlier work

CCCCCCCCCCCCCCCC(=O)SCCNC(=O)CCNC(=O)[C@H](O)C(C)(C)COP(=O)(O)OP(=O)(O)OC[C@H]1O[C@@H](n2cnc3c(N)ncnc32)[C@H](O)[C@@H]1OP(=O)(O)O [palmitoyl-CoA]
inhibition of Ras PAT activity by unlabeled acyl-CoA competitor (yeast Erf2p/Erf4p; 8 μM competitor, a 16-fold excess): 90%

CCCCCCCCCCCCCC(=O)SCCNC(=O)CCNC(=O)[C@H](O)C(C)(C)COP(=O)(O)OP(=O)(O)OC[C@H]1O[C@@H](n2cnc3c(N)ncnc32)[C@H](O)[C@@H]1OP(=O)(O)O [myristoyl, myristoyl-CoA]
effectiveness as competitor of the radioactive Ras PAT reaction (in words) (yeast Erf2p/Erf4p): more effective

CCCCCCCCCCCC(=O)SCCNC(=O)CCNC(=O)[C@H](O)C(C)(C)COP(=O)(O)OP(=O)(O)OC[C@H]1O[C@@H](n2cnc3c(N)ncnc32)[C@H](O)[C@@H]1OP(=O)(O)O [Lauryl, lauroyl-CoA]
effectiveness as competitor of the radioactive Ras PAT reaction (in words) (yeast Erf2p/Erf4p): more effective

CCCCCCCCCC(=O)SCCNC(=O)CCNC(=O)[C@H](O)C(C)(C)COP(=O)(O)OP(=O)(O)OC[C@H]1O[C@@H](n2cnc3c(N)ncnc32)[C@H](O)[C@@H]1OP(=O)(O)O [Decanoyl, decanoyl-CoA]
effectiveness as competitor of the radioactive Ras PAT reaction (in words) (yeast Erf2p/Erf4p): ineffective

CCCCCCCCCCCCCCC(Br)C(=O)O (stereo not shown) [2-BP, 2-Bromopalmitate]
inhibition of Erf2/Erf4-dependent PAT activity using yeast Ras2 as a substrate (in words) (yeast Erf2p/Erf4p; increasing concentrations of 2-BP, GST-Ras(HV)CCaaX 1.33 μM): inhibits
inhibition of autopalmitoylation of Erf2p (in words) (Erf2p/Erf4p complex): inhibited in a dose-dependent manner
inhibition of PAT activity in vivo (in words) (PAT): inhibit PAT activity in vivo

— patent publication US7488592B2, “Human protein acyl transferases and methods of uses therefor” (Washington University, priority 2003, dated 2009)
